This passage reports IC50 results from patent publication US11534443B2, “Quinazoline compounds, preparation method, use, and pharmaceutical composition thereof” (INSTITUTE OF MATERIA MEDICA, CHINESE ACADEMY OF MEDICAL …, priority 2016, dated 2022).

Assay [1] relates to human lung cancer cell NCI-H460. The experiment in a line: Tumor cell viability by MTT assay. The class given is cell-based. The procedure: After 24 hours, 100 μL of fresh medium containing different concentrations of test compounds and the corresponding solvent control was added into each well to a final concentration of DMSO less than 0.2%. Six to nine concentration groups were set for each test compound, and three parallel wells were set for each group. The plate was incubated at 5% CO2, 37° C. for 96 hours. 20 μL of freshly prepared PBS solution containing 5 mg/mL MTT was added to each well. The supernatant was discarded after incubation for another 4 hours. 150 μL DMSO was added to each well to dissolve the MTT formazan precipitate. After being mixed by a micro-oscillator, the optical density (OD) was measured at the wavelength of 570 nm, and the tumor cells treated with DMSO were used as a control group.
(In general: Tetrazolium dyes change colour on reduction, which living cells bring about.)

A further assay concerns the target PI3Kα (Homo sapiens (Human), UniProt P42336). Description: Biochemical evaluation of activity of PI3Kα (Kinase-Glo luminescence kinase assay). To be noted: 25 μM ATP, 50 μM PIP2, 1 h at room temperature. The method, then: The potency of compounds in the present intention against PI3Kα was assessed by in vitro kinase assay. The kinase activity of PI3Kα was determined by detecting the level of ADP produced in the kinase reaction with luciferase-based luminescence detection.
The Kinase-Glo™ Kinase Assay Kit was purchased from Promega. All assays were performed at room temperature using white OptiPlate™-384 well plate. The PI3Kα kinase was purchased from Invitrogen. The substrate was PIP2 from Invitrogen. The kinase buffer contained 50 mM Hepes (pH 7.5), 3 mM MgCl2, 100 mM NaCl, 1 mM EGTA, 0.03% CHAPS and 2 mM DTT. […] The substrate solution contained 100 μM PIP2 and 50 μM ATP. The test compound was diluted to 10 mM in 100% DMSO and serially diluted three times into ten different concentrations in 100% DMSO. The compound diluted in 100% DMSO was diluted 25-fold in 1×kinase buffer. 2.5 μL of the diluted compound solution and 2.5 μL PI3Kα kinase solution were added to each well of a 384-well plate. The reaction was initiated by addition of 5 μL substrate solution to each well. […] The plate was then covered and the reaction was allowed to proceed for one hour at room temperature, followed by the addition of 10 μL Kinase-Glo™ reagent to each well to stop the reaction.
The percentage of inhibition was calculated as follows: Inhibition %=100−(max−sample RLU)/(max−min)*100
wherein sample RLU was the luminescence reading for a given compound concentration, min was the reading of DMSO control, and max was the reading of the enzyme-free control. The IC50 value was calculated with the XLfit program in Excel.
A general note: Kinase-Glo measures the ATP left after a reaction by luminescence.

A word on the IC50: it is the concentration at which inhibition is half-maximal. A lower IC50 goes with higher potency.

Sequence of PI3Kα (P42336 whole entry): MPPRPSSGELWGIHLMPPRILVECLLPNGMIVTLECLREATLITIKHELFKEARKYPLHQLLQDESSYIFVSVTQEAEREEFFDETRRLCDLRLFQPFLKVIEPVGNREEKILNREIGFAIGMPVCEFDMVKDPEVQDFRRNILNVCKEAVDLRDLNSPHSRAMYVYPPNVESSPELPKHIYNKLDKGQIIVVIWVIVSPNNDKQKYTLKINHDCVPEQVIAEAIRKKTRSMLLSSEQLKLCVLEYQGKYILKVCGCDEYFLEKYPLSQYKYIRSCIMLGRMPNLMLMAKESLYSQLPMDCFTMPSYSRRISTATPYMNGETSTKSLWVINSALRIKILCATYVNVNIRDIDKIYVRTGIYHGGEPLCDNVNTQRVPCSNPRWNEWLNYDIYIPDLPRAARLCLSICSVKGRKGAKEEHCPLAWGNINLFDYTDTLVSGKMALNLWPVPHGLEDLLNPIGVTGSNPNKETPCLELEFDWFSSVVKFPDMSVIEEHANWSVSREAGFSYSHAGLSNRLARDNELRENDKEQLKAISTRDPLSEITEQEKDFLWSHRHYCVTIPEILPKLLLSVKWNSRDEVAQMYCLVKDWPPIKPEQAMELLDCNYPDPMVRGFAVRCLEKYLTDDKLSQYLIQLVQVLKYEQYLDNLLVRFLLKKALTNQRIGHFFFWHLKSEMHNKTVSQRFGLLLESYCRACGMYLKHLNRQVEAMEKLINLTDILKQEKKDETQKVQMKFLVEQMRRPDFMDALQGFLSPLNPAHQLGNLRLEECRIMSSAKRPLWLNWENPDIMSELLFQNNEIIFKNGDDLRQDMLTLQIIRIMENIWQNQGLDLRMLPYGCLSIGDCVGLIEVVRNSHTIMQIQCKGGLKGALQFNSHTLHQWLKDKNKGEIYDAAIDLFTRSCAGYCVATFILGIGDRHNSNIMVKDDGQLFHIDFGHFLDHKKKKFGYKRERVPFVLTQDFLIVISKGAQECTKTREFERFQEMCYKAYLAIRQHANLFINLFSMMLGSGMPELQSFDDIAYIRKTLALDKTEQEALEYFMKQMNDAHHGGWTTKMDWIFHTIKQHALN
Sequence of PI3Kα (P27986 whole entry partner): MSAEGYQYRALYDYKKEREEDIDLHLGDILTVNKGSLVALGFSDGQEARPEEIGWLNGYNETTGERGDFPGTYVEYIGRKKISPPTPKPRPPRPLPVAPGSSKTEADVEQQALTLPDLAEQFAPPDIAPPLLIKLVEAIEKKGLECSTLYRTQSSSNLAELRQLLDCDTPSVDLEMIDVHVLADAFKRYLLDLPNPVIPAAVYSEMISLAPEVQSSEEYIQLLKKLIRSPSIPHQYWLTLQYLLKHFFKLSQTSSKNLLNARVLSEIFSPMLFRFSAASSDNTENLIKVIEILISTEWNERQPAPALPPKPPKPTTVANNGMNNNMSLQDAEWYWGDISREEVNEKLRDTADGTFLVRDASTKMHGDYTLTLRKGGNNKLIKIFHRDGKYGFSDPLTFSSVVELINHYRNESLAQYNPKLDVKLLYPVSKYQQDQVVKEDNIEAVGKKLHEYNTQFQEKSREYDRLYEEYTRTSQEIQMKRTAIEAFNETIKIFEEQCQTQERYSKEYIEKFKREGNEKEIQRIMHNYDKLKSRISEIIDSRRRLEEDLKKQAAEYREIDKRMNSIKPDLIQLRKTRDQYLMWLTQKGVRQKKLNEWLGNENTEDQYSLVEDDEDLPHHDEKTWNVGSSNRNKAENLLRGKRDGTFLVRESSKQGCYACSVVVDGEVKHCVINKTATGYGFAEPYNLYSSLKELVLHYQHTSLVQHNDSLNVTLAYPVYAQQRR

Consider `COc1ncc(-c2cc(O[C@H]3CC[C@H](OC)CC3)c3nc(N)nc(C)c3c2)cc1NS(=O)(=O)c1ccc(F)cc1F` (single isomer, unassigned) [Example 18-1, N-(5-(2-amino-8-((4-methoxycyclohexyl)oxy)-4-methylquinazolin-6-yl)-2-methoxypyridin-3-yl)-2,4-difluorobenzenesulfonamide], for which the IC50 was 30 nM in assay [1] (Homo sapiens, NCI-H460, 96 h) and 1.1 nM on PI3Kα. For the compound `COc1ncc(-c2cc(O[C@H]3CC[C@H](OC)CC3)c3nc(N)nc(C)c3c2)cc1NS(=O)(=O)c1ccc(F)cc1F` (single isomer, unassigned) [Example 18-2, N-(5-(2-amino-8-((4-methoxycyclohexyl)oxy)-4-methylquinazolin-6-yl)-2-methoxypyridin-3-yl)-2,4-difluorobenzenesulfonamide], the values for the IC50 (in assay [1] (96 hours); on PI3Kα) were 57 nM and 0.8 nM, respectively. For `COc1ncc(-c2cc(OC3CCOCC3)c3nc(N)nc(C)c3c2)cc1NS(=O)(=O)c1ccc(F)cc1Cl` [Example 2, N-(5-(2-amino-4-methyl-8-((tetrahydro-2H-pyran-4-yl)oxy)quinazolin-6-yl)-2-methoxypyridin-3-yl)-2-chloro-4-fluorobenzenesulfonamide], the IC50 in assay [1] (Homo sapiens, NCI-H460, 96 h) amounted to 17 nM; at PI3Kα, 0.72 nM. As to `COc1ncc(-c2cc(OC3CCOCC3)c3nc(N)nc(C)c3c2)cc1NS(=O)(=O)c1ccc(F)cc1` [Example 3, N-(5-(2-amino-4-methyl-8-((tetrahydro-2H-pyran-4-yl)oxy)quinazolin-6-yl)-2-methoxypyridin-3-yl)-4-fluorobenzenesulfonamide], it took 96 nM to reach half-maximal inhibition in assay [1] (Homo sapiens, NCI-H460, 96 h) (IC50). Take `COc1ncc(-c2cc(OC3CCOCC3)c3nc(N)nc(C)c3c2)cc1NS(=O)(=O)c1ccc(Cl)s1` [Example 4, N-(5-(2-amino-4-methyl-8-((tetrahydro-2H-pyran-4-yl)oxy)quinazolin-6-yl)-2-methoxypyridin-3-yl)-5-chlorothiophene-2-sulfonamide]: at PI3Kα, the IC50 is 0.74 nM. Turning to `COc1ncc(-c2cc(OC3CCOCC3)c3nc(N)nc(C)c3c2)cc1NS(C)(=O)=O` [Example 5, N-(5-(2-amino-4-methyl-8-((tetrahydro-2H-pyran-4-yl)oxy)quinazolin-6-yl)-2-methoxypyridin-3-yl)methanesulfonamide], the IC50 came out at 860 nM in assay [1] (Homo sapiens, NCI-H460, 96 h) and 2.7 nM at PI3Kα.

For `COc1ncc(-c2cc(OC3CCOCC3)c3nc(N)nc(C)c3c2)cc1NS(=O)(=O)C1CC1` [Example 6, N-(5-(2-amino-4-methyl-8-((tetrahydro-2H-pyran-4-yl)oxy)quinazolin-6-yl)-2-methoxypyridin-3-yl)cyclopropanesulfonamide], the 50% inhibitory concentration (IC50) in assay [1] (Homo sapiens, NCI-H460, 96 h) was 930 nM; against PI3Kα, 2.3 nM. Consider `Cc1ncc(-c2cc(OC3CCOCC3)c3nc(N)nc(C)c3c2)cc1NS(=O)(=O)c1ccc(F)cc1F` [Example 7, N-(5-(2-amino-4-methyl-8-((tetrahydro-2H-pyran-4-yl)oxy)quinazolin-6-yl)-2-methylpyridin-3-yl)-2,4-difluorobenzenesulfonamide], for which the IC50 in assay [1] (Homo sapiens, NCI-H460, 96 h) came out at 2100 nM; at PI3Kα it was 1.1 nM. The corresponding values for `Cc1nc(N)nc2c(OC3CCOCC3)cc(-c3cnc(Cl)c(NS(=O)(=O)c4ccc(F)cc4)c3)cc12` [Example 8, N-(5-(2-amino-4-methyl-8-((tetrahydro-2H-pyran-4-yl)oxy)quinazolin-6-yl)-2-chloropyridin-3-yl)-4-fluorobenzenesulfonamide] are 1200 nM and 1 nM.

In the case of `COc1ncc(-c2cc(O[C@@H]3CCOC3)c3nc(N)nc(C)c3c2)cc1NS(C)(=O)=O` [Example 10, (R)—N-(5-(2-amino-4-methyl-8-((tetrahydrofuran-3-yl)oxy)quinazolin-6-yl)-2-methoxypyridin-3-yl)methanesulfonamide], the IC50 in assay [1] (Homo sapiens, NCI-H460, 96 h) is 2200 nM; against PI3Kα, 3.8 nM. Consider `COc1ncc(-c2cc(O[C@H]3CCOC3)c3nc(N)nc(C)c3c2)cc1NS(=O)(=O)c1ccc(F)cc1F` [Example 11, (S)—N-(5-(2-amino-4-methyl-8-((tetrahydrofuran-3-yl)oxy)quinazolin-6-yl)-2-methoxypyridin-3-yl)-2,4-difluorobenzenesulfonamide], for which the IC50 came to 94 nM in assay [1] (Homo sapiens, NCI-H460, 96 h) and 0.94 nM on PI3Kα. For `COc1ncc(-c2cc(O[C@H]3CCOC3)c3nc(N)nc(C)c3c2)cc1NS(C)(=O)=O` [Example 12, (S)—N-(5-(2-amino-4-methyl-8-((tetrahydrofuran-3-yl)oxy)quinazolin-6-yl)-2-methoxypyridin-3-yl)methanesulfonamide], the IC50 in assay [1] (Homo sapiens, NCI-H460, 96 h) came to 2300 nM; on PI3Kα, 4.5 nM. On to `COc1ncc(-c2cc(OCC3CCOCC3)c3nc(N)nc(C)c3c2)cc1NS(=O)(=O)c1ccc(F)cc1F` [Example 13, N-(5-(2-amino-4-methyl-8-((tetrahydro-2H-pyran-4-yl)methoxy)quinazolin-6-yl)-2-methoxypyridin-3-yl)-2,4-difluorobenzenesulfonamide], for which the half-maximal inhibitory concentration (IC50) in assay [1] (Homo sapiens, NCI-H460, 96 h) stood at 21 nM; on PI3Kα, 0.84 nM. The corresponding values for `COc1ncc(-c2cc(OCC3CCOCC3)c3nc(N)nc(C)c3c2)cc1NS(C)(=O)=O` [Example 14, N-(5-(2-amino-4-methyl-8-((tetrahydro-2H-pyran-4-yl)methoxy)quinazolin-6-yl)-2-methoxypyridin-3-yl)methanesulfonamide] are 2000 nM and 3.3 nM. The compound `COc1ncc(-c2cc(OC3CCOC(C)(C)C3)c3nc(N)nc(C)c3c2)cc1NS(=O)(=O)c1ccc(F)cc1F` (centres unmarked) [Example 19, N-(5-(2-amino-8-((2,2-dimethyltetrahydro-2H-pyran-4-yl)oxy)-4-methylquinazolin-6-yl)-2-methoxypyridin-3-yl)-2,4-difluorobenzenesulfonamide] gave an IC50 at PI3Kα of 1 nM.

`COc1ncc(-c2cc(OCC3CCCO3)c3nc(N)nc(C)c3c2)cc1NS(=O)(=O)c1ccc(F)cc1F` (centres unmarked) [Example 20, N-(5-(2-amino-4-methyl-8-((tetrahydrofuran-2-yl)methoxy)quinazolin-6-yl)-2-methoxypyridin-3-yl)-2,4-difluorobenzenesulfonamide] had an IC50 against PI3Kα of 1.3 nM.

For `COc1ncc(-c2cc(OCC3CCOC3)c3nc(N)nc(C)c3c2)cc1NS(=O)(=O)c1ccc(F)cc1F` (centres unmarked) [Example 21, N-(5-(2-amino-4-methyl-8-((tetrahydrofuran-3-yl)methoxy)quinazolin-6-yl)-2-methoxypyridin-3-yl)-2,4-difluorobenzenesulfonamide], it took 1 nM to reach half-maximal inhibition against PI3Kα (IC50). `COc1ncc(-c2cc(OC3CCCC3)c3nc(N)nc(C)c3c2)cc1NS(=O)(=O)c1ccc(F)cc1F` [Example 23, N-(5-(2-amino-8-(cyclopentyloxy)-4-methylquinazolin-6-yl)-2-methoxypyridin-3-yl)-2,4-difluorobenzenesulfonamide] returned a half-maximal inhibitory concentration (IC50) on PI3Kα of 1.1 nM.

The compound `COc1ncc(-c2cc(OC3CCC3)c3nc(N)nc(C)c3c2)cc1NS(=O)(=O)c1ccc(F)cc1F` [Example 24, N-(5-(2-amino-8-cyclobutoxy-4-methylquinazolin-6-yl)-2-methoxypyridin-3-yl)-2,4-difluorobenzenesulfonamide] registered an IC50 against PI3Kα of 0.8 nM.

Compound `CNc1nc(C)c2cc(-c3cnc(OC)c(NS(=O)(=O)c4ccc(F)cc4F)c3)cc(O[C@H]3CCOC3)c2n1` [Example 35, (S)—N-(2-methoxy-5-(4-methyl-2-(methylamino)-8-((tetrahydrofuran-3-yl)oxy)quinazolin-6-yl)pyridin-3-yl)-2,4-difluorobenzenesulfonamide] showed an IC50 against PI3Kα of 1.8 nM.

As for `CNc1nc(C)c2cc(-c3cnc(OC)c(NS(=O)(=O)c4ccc(F)cc4F)c3)cc(OC3CCCC3)c2n1` [Example 40, N-(5-(8-(cyclopentyloxy)-4-methyl-2-(methylamino)quinazolin-6-yl)-2-methoxypyridin-3-yl)-2,4-difluorobenzenesulfonamide], half-maximal inhibition against PI3Kα (IC50) was put at 8.5 nM. `CNc1nc(C)c2cc(-c3cnc(OC)c(NS(=O)(=O)c4ccc(F)cc4F)c3)cc(OC3CCC3)c2n1` [Example 41, N-(5-(8-cyclobutoxy-4-methyl-2-(methylamino)quinazolin-6-yl)-2-methoxypyridin-3-yl)-2,4-difluorobenzenesulfonamide]: the 50% inhibitory concentration (IC50) at PI3Kα was 5 nM.

With `COc1ncc(-c2cc(OCCN3CCOCC3)c3ncnc(C)c3c2)cc1NS(=O)(=O)c1ccc(F)cc1F` [Example 65, N-(2-methoxy-5-(4-methyl-8-(2-morpholinoethoxy)quinazolin-6-yl)pyridin-3-yl)-2,4-difluorobenzenesulfonamide], in assay [1] (Homo sapiens, NCI-H460, 96 h), the IC50 turned out to be 630 nM.
